# Laboratory results from patent US20070032480A1, “Treatment of ischemia-induced arrhythmias” (The Johns Hopkins University, priority 2005, published 2007).
# “Also recorded” adds a separate entry of the source.
# Key:
# [1] = test system: Langendorff-perfused guinea pig hearts; assay: Electrophysiological response to 30 min no-flow global ischemia; conditions: for blunting of AP shortening and persistence of APs during ischemia at the highest concentration: 100 μM, 30 min no-flow ischemia; for ischemia-induced APD shortening: pre-treatment before no-flow ischemia; for ischemia-induced APD shortening / ischemia-induced reduction of normalized APA and upstroke velocity (dF/dt): versus control hearts; for ischemia-induced reduction of normalized APA and upstroke velocity (dF/dt): relative to pre-ischemia baseline; for time for the onset of inexcitability during ischemia: no-flow ischemia, control hearts ˜18 min
# Method: (§1) All procedures involving the handling of animals were approved by the Animal Care and Use Committee of the Johns Hopkins University and adhered with public health service guidelines. As described in detail elsewhere (28), adult guinea pigs (n=48) were anesthetized with pentobarbital sodium (30 mg/kg ip), and retrogradely perfused as Langendorff preparations with oxygenated (95% 02-5% CO2) Tyrode solution containing (in mmol/l) 130 NaCl, 1.2 MgSO4, 4.75 KCl, 5.0 dextrose, and 1.25 CaCl2 (pH 7.40) at 36±1° C. Hearts were stained with the voltage-sensitive dye, di-4-ANEPPS (15 μmol/l) for 10 min, and then positioned in a chamber such that the mapping field was centered over a 0.8 cm diameter region of left ventricular epicardium, midway between apex and base. Gentle pressure was applied to the posterior surface of the heart with a movable piston to stabilize the mapped surface against the imaging window of the chamber allowing us to avoid the use of electromechanical inhibitors, which interfere with repolarization, and the incidence of arrhythmias. Although experiments were typically completed within 1.5 to 2 h, these preparations remained stable for over 4 h of perfusion. Pacing with a silver pin needle placed on the epicardium was performed intermittently and briefly at various times during the experimental protocol in order to obtain a quantitative assessment of epicardial conduction velocity at each time point. Pacing was then turned off in order to determine the intrinsic response of hearts to the ischemia reperfusion protocol independent of exogenous stimulation.
# (§2) An optical mapping system was designed with the capability of simultaneously recording transmembrane action potentials (APs) from 464 sites. Emitted fluorescence was collected using a custom designed optical macroscope imaging system consisting of a high numerical aperture photographic lens, a dichroic mirror and an emission filter as previously described in detail (29). Emitted light exiting the detector lens was filtered (>610 nm) and focused onto the photodiode array. Photocurrent from each photodiode underwent current-to-voltage conversion, amplification, band-pass filtering, multiplexing, and digitization (1600 samples/s per channel) with 16-bit precision.
# (§3) Following extraction and staining with di-4-ANEPPS, hearts were stabilized for 30 min. Monitoring of APs, perfusion pressure, coronary flow, and temperature ensured electrical stability in all preparations (n=48) used in this study. Pharmacological agents were delivered to the heart in one of two ways: 1) continuously, during control perfusion and reperfusion, or 2) in a high dose bolus (5-10× the optimal equilibration concentration), injected into the coronaries during the ischemic phase, 5 min before the onset of reperfusion. […] Following baseline perfusion at 15-20 mL/min to maintain a perfusion pressure of 60-70 mmHg, flow was completely stopped for 30 min (Ischemia phase), and APs (3.8 s epochs) were recorded at 1-min intervals. Following the ischemia phase, perfusion was restored initially at the same flow rate and then was adjusted slightly to exactly match the perfusion pressure during the baseline perfusion phase (Reperfusion phase). The optimal equilibration concentration of each agent was determined by its effects on ischemia-induced AP shortening, recovery of the AP duration (APD), and/or prevention of arrhythmias upon reperfusion.
# Next, the ability of any of these pharmacological interventions to modulate the electrophysiological response of hearts to no-flow global ischemia was tested. […] Also, APD shortening in ischemia was accompanied by progressive reduction of the AP upstroke velocity, which occurred over a similar time frame (see, for example, FIG. 4).
# Ischemic elevation of extracellular K^+ concentration, which may be mediated in part by KATP channel opening, might also be expected to partially depolarize the cellular resting membrane potential. […]
# [2] = test system: freshly isolated adult guinea pig ventricular myocytes; assay: ΔΨm oscillations and action potentials in isolated cardiomyocytes (two-photon TMRM imaging with current-clamp); type: cell-based
# [3] = test system: Langendorff-perfused guinea pig hearts; assay: Baseline electrophysiological properties (APD, CV) of perfused hearts by optical mapping; conditions: for baseline APD / baseline CV (conduction velocity): optimal concentration of each agent (4.6 μM FGIN-1-27, 0.2 μM CsA, 64 μM 4′Cl-DZP, 10 μM GLIBEN)
# Method: as §1, with “Although experiments were typically completed within 1.5 to 2 h, these preparations remained stable for over 4 h of perfusion.” left out
# as §2
# as §3, with “Monitoring of APs, perfusion pressure, coronary flow, and temperature ensured electrical stability in all preparations (n=48) used in this study.” left out
# In order to investigate whether mitochondrial ROS-induced activation of IMAC underlies the electrical dysfunction of hearts subjected to IR, a protocol for reproducibly inducing ventricular fibrillation (VF) in Langendorff-perfused guinea pig hearts was established.
# [4] = test system: Langendorff-perfused guinea pig hearts; assay: Response to reperfusion after 30 min ischemia (arrhythmias, AP recovery); conditions: for period of electrical inexcitability upon reperfusion: 0.2 μM CsA, 4′-Cl-DZP pretreated hearts; for post-ischemic (reperfusion) arrhythmias, effect in words: reperfusion after 30 min ischemia
# Method: as §1, §2, §3
# Reperfusion of untreated control hearts was associated with sustained ventricular fibrillation (VF) in 89% of hearts (FIG. 5).
smiles,measurement,setting,value
"CN1C(=O)CN=C(c2ccc(Cl)cc2)c2cc(Cl)ccc21 [4′-Cl-DZP, 4′-chlorodiazepam]",blunting of AP shortening and persistence of APs during ischemia at the highest concentration,[1],APs persisted even after 30 min of no-flow ischemia
same,blunting of AP shortening and persistence of APs during ischemia at the highest concentration,[1]; listed as 4′Cl-DZP,most effective in blunting AP shortening during ischemia
same,ischemia-induced APD shortening,[1],blunted APD shortening in a dose-dependent fashion; also recorded: blunted APD shortening during ischemia
same,ischemia-induced reduction of normalized APA and upstroke velocity (dF/dt),[1],protected against such decrease in both parameters
same,time from drug application to suppression of AP oscillations and stabilisation of APD90,[2]; 64 μM,≤ 2 min
same,oscillations in APD,"[2]; current-clamp, laser-triggered oscillations, 64 μM",eliminated oscillations in APD; also recorded: APD oscillations are eliminated
same,whole-cell oscillations in ΔΨm,"[2]; oscillations triggered by focal two-photon laser flash, TMRM fluorescence",suppressed whole-cell oscillations in ΔΨm; also recorded: interruption of mitochondrial oscillations with ΔΨm recovery
same,time to return of ΔΨm oscillations after washout of the compound,"[2]; washout, FIG. 1A",≤ 10 min
same,effect on APD or CV during baseline perfusion,"[3]; 100 μM, baseline perfusion",no significant effect on APD or CV; also recorded: comparable
same,baseline APD,[3]; baseline perfusion,188 ± 16 ms
same,baseline CV (conduction velocity),[3]; baseline perfusion,39 ± 5 cm/s
same,period of electrical inexcitability upon reperfusion,[4],< 2 min
same,restoring the APD upon reperfusion and preventing arrhythmias,[4]; 100 μM versus 64 μM,not as effective as the lower concentration of 64 μM in restoring the APD upon reperfusion and preventing arrhythmias
same,prevention of reperfusion-related VF,[4]; 320 μM high dose bolus 5 min prior to onset of reperfusion,4 of 4
same,prevention of reperfusion-related VF,[4]; 32-64 μM delivered continuously prior to ischemia,6 of 8
same,hearts that exhibited no sustained arrhythmias upon reperfusion,[4]; all 4′-Cl-DZP treated hearts (continuous and bolus),10 of 12
same,recovery of the AP upon reperfusion,"[4]; optimal concentrations (64 μM 4′-Cl-DZP, 0.2 μM CsA)",promoted the rapid recovery of the AP morphology and duration
same,"post-ischemic (reperfusion) arrhythmias, effect in words",[4],markedly decreased the incidence of post-ischemic arrhythmias; also recorded: more effective than continuous inhibition of KATP channels
same,"post-ischemic (reperfusion) arrhythmias, effect in words",[4]; listed as 4′CL-DZP,prevented reperfusion-related ventricular fibrillation
CCCCCCN(CCCCCC)C(=O)Cc1c(-c2ccc(F)cc2)[nH]c2ccccc12 [FGIN-1-27],time for the onset of inexcitability during ischemia,[1],12.7 ± 2.6 min
same,ischemia-induced APD shortening,[1],accelerated APD shortening during ischemia
same,ischemia-induced reduction of normalized APA and upstroke velocity (dF/dt),[1],accentuated the ischemia-induced reduction of APA and dF/dt; also recorded: more enhanced reduction of action potential amplitude
same,slowing of CV during ischemia,[1]; versus untreated hearts,disproportionate slowing of CV
same,effect on APD and excitability during normal perfusion,"[3]; 46 μM, normal perfusion",significant APD shortening and membrane inexcitability
same,time from drug delivery to APD shortening and membrane inexcitability,"[3]; 46 μM, normal perfusion",≤ 15 min
same,baseline APD,[3]; baseline perfusion,174 ± 16 ms
same,baseline CV (conduction velocity),[3]; baseline perfusion,44 ± 6 cm/s
same,period of electrical inexcitability upon reperfusion,[4],prolonged period of electrical silence
same,hearts with ventricular tachycardia (VT) upon reperfusion,[4]; FGIN-1-27 treated hearts,6 of 6
same,cycle length of VT upon reperfusion,[4]; compared to control hearts,significantly longer cycle length
same,"post-ischemic (reperfusion) arrhythmias, effect in words",[4],long period of electrical silence followed by ventricular tachycardia (VT) of long duration
COc1ccc(Cl)cc1C(=O)NCCc1ccc(S(=O)(=O)NC(=O)NC2CCCCC2)cc1 [GLIBEN],time for the onset of inexcitability during ischemia,[1],~18 min
same,ischemia-induced APD shortening,[1],marked reduction in the rate of APD shortening
same,ischemia-induced reduction of normalized APA and upstroke velocity (dF/dt),[1],protected against such decrease in both parameters
same,baseline APD,[3]; baseline perfusion,182 ± 16 ms
same,baseline CV (conduction velocity),[3]; baseline perfusion,41 ± 5 cm/s
same,hearts in which tachyarrhythmias were prevented,[4]; bolus dose given just prior to reperfusion,2 of 3
